What is called Kd is a measure of binding affinity in units of concentration. A low value points to tighter binding. As a reminder, the IC50 is the midpoint of a concentration-inhibition curve. A word on the MIC: it is the least concentration at which growth counts as inhibited.

We go through one molecule from article PMC5800494 (ACS chemical biology, 2017).

One assay addresses E. coli RNAP core enzyme (Escherichia coli, UniProt P0A800+P0A8T7+P0A8V2). Kind of assay: AS-MS. The assay is classed as binding.
The next assay addresses RNAP (Escherichia coli, UniProt P0A800+P0A8T7+P0A8V2). Kind of assay: biochemical. On the set-up: species or system E. coli.
In assay [1] the target is RNAP (wild-type, co-expressed) (Escherichia coli, UniProt P0A800+P0A8T7+P0A8V2). Briefly: biochemical. More on the design: species or system E. coli.
Another assay concerns the target [D516V]β-RNAP (Escherichia coli, UniProt P0A800+P0A8T7+P0A8V2, D516V). Kind of assay: biochemical. More on the design: species or system E. coli.
The next assay addresses [H526D]β-RNAP (Escherichia coli, UniProt P0A800+P0A8T7+P0A8V2, H526D). Briefly: biochemical. More on the design: species or system E. coli.
The next assay has as its target [S531L]β-RNAP (Escherichia coli, UniProt P0A800+P0A8T7+P0A8V2, S531L). Briefly: biochemical. More on the design: species or system E. coli.
The next assay relates to [D622G]β′-RNAP. Kind of assay: Fluorescence-detected RNAP inhibition assay. The note with it: enzyme: [D622G]β′-RNAP vs RNAP (co-expressed). The assay is classed as biochemical, E. coli.
For a further assay, the target named is RNAP (reconstituted) (Escherichia coli, UniProt P0A800+P0A8T7+P0A8V2). Briefly: biochemical. The format is biochemical, E. coli.
For the next assay, the system named is Δω RNAP. The format is biochemical, E. coli. Conditions: enzyme: Δω RNAP vs RNAP (reconstituted).
Assay [2] deals with E. coli MB5746 (lpxC tolC). Kind of assay: Broth microdilution MIC. Conditions: Escherichia coli. The format is cell-based. Background: Broth dilution looks for growth in wells or tubes with falling amounts of substance.
Assay [3] relates to E. coli D21f2tolC (rfa tolC). Kind of assay: Broth microdilution MIC. The note with it: Escherichia coli. The assay is classed as cell-based.
Assay [4] deals with E. coli D21f2tolC Rif^R-D516V (rfa tolC rpoB-D516V). Kind of assay: Broth microdilution MIC. The format is cell-based. The note with it: Escherichia coli.
The test system of assay [5] is E. coli D21f2tolC Rif^R-H526D (rfa tolC rpoB-H526D). Briefly: Broth microdilution MIC. The format is cell-based. The note with it: Escherichia coli.
For assay [6], the system named is E. coli D21f2tolC Rif^R-S531L (rfa tolC rpoB-S531L). Kind of assay: Broth microdilution MIC. The assay is classed as cell-based. The note with it: Escherichia coli.
Assay [7] deals with E. coli MB5746 RpoC (RNAP β′ subunit) D622G mutant. Kind of assay: Broth microdilution MIC on MRL-436-resistant mutant. The note with it: RpoC D622G mutant of MB5746. The format is cell-based.
For assay [8], the system named is E. coli MB5746 RpoZ (RNAP ω subunit) Δ13–91 (frameshift) mutant. The assay is described as above. The assay is classed as cell-based. The note with it: RpoZ Δ13–91 (frameshift) mutant of MB5746.
Assay [9] deals with E. coli MB5746 RpoZ (RNAP ω subunit) Δ21–91 (frameshift) mutant. The assay is described as above. The format is cell-based. Conditions: RpoZ Δ21–91 (frameshift) mutant of MB5746.
The subject of assay [10] is E. coli MB5746 RpoZ (RNAP ω subunit) Δ23–91 (frameshift) mutant. Described as above. The format is cell-based. The note with it: RpoZ Δ23–91 (frameshift) mutant of MB5746.
Assay [11] deals with E. coli MB5746 RpoZ (RNAP ω subunit) Δ24–91 (frameshift) mutant. The description is as above. The format is cell-based. The note with it: RpoZ Δ24–91 (frameshift) mutant of MB5746.
The subject of assay [12] is E. coli MB5746 RpoZ (RNAP ω subunit) Δ35–91 (frameshift) mutant. Described as above. The format is cell-based. The note with it: RpoZ Δ35–91 (frameshift) mutant of MB5746.
The test system of assay [13] is E. coli MB5746 RpoZ (RNAP ω subunit) Δ1–91 (deletion). Briefly: Broth microdilution MIC on constructed ΔrpoZ strain. Conditions: RpoZ Δ1–91 (deletion) of MB5746. The format is cell-based.
Another assay has as its target yeast invertase (Saccharomyces cerevisiae, UniProt P00724). Conditions: compound at 10 μM against 5μM invertase.

Converted amounts (≈) assume the structure as drawn. A value given as a limit tells only on which side of the number the result lay.

For the molecule `CO[C@H]1/C=C/O[C@@]2(C)Oc3c(C)c(O)c4c(O)c(c(/C=N/N5CCN(C)CC5)c(O)c4c3C2=O)NC(=O)/C(C)=C\C=C\[C@H](C)[C@H](O)[C@@H](C)[C@@H](O)[C@@H](C)[C@H](OC(C)=O)[C@@H]1C` [Rif, rifampin], the Kd on E. coli RNAP core enzyme was < 2000 nM. The IC50 against RNAP is 20 nM; in [1], 30 nM; in [D516V]β-RNAP, 70000 nM; in [H526D]β-RNAP, > 100000 nM; in assay [S531L]β-RNAP, 80000 nM; against RNAP (reconstituted), 40 nM. In addition, the “IC50 ratio (IC50/IC50wild-type)” value in assay [1] (enzyme: RNAP (co-expressed)) came to 1; in assay [D622G]β′-RNAP, 1; on RNAP (reconstituted) (enzyme: RNAP (reconstituted)), 1; in the assay with Δω RNAP, 0.5. Besides, the MIC in assay [2] came out at 0.5 µg/mL (≈ 0.608 µM); in [3] it was 0.5 µg/mL (≈ 0.608 µM); in [4], 32 µg/mL (≈ 38.9 µM); in assay [5] it was 128 µg/mL (≈ 156 µM); in assay [6], 64 µg/mL (≈ 77.8 µM). Further, the “resistance level (MIC/MICwild-type)” value in assay [7], in [8], in assay [9], in assay [10], in [11] and in assay [12] was 1 throughout. For the same molecule, the “resistance level (MIC/MICwild-type)” value in assay [13] was determined as 1. Moreover, the “AS-MS signal against invertase (selectivity counter-screen)” value at yeast invertase is reported as “did not show an AS-MS signal”.
